# Measured values published in patent US9808527B2, “Methods and compositions for treating HIV infections” (priority 2006, dated 2017).
# Where two headings read alike, the source gives them in different places.
# Columns and labels:
# HIV-1APV5μM = assay: microbe, parasite or virus in culture; assay type: cell-based; settings: for IC50: Human immunodeficiency virus 1, MT4, read-out: IC50 against HIV-1APV5μM; for fold change of IC50, HIV-1APV5μM: compared to wild-type HIV-1NL4-3
# Procedure: (§1) Drug susceptibility assay. The susceptibility of HIV-1LAI, HIV-2EHO, HIV-2ROD, to various drugs and the cytotoxicity of those drugs was determined by using the MTT assay. Briefly, MT-2 cells (2×10^4/mL) were exposed to 100 TCID50s (50% tissue culture infectious doses) of HIV-1LAI, HIV-2EHO, or HIV-2ROD in the presence or absence of various concentrations of drugs in 96-well microculture plates and were incubated at 37° C. for 7 days. After 100 μL of the medium was removed from each well, 3-(4,5-dimethylthiazol-2-yl)-2,5-diphenyltetrazolium bromide (MTT) solution (10 μL, 7.5 mg/mL in phosphate-buffered saline) was added to each well in the plate, followed by incubation at 37° C. for 4 hours. […] All assays were performed in duplicate or triplicate. To determine the sensitivity of HIV-1Ba-L, HIV-1ERS104 pre, and clinical multi-drug-resistant HIV-1 isolates and different subtypes of HIV-1 isolates to drugs, phytohemagglutinin-activated peripheral blood mononuclear cells (PHA-PBMs; 10^6/mL) were exposed to 50 TCID50 (50% tissue infectious dose) of each HIV-1 isolate and cultured in the presence or absence of various concentrations of drugs in 10-fold serial dilutions in 96-well microtiter culture plates. To determine the drug susceptibility of certain laboratory HIV-1 strains (HIV-1NL4-3), MT-4 cells were used as target cells. MT-4 cells (10^5/mL) were exposed to 100 TCID50 of wild type HIV-1NL4-3 and PI-resistant HIV-1NL4-3 in the presence or absence of various concentrations of drugs and were incubated at 37° C. On day 7 of culture, the supernatant was harvested and the amount of p24 Gag protein was determined by using a fully automated chemiluminescent enzyme immunoassay system (Lumipulse F; Fujirebio Inc., Tokyo, Japan) (22). […] All assays were performed in duplicate or triplicate.
# (§2) Generation of PI-resistant HIV-1 in vitro. MT-4 cells (10^5/mL) were exposed to HIV-1NL4-3 (500 TCID50) and cultured in the presence of various PIs at an initial concentration of its IC50 values. Viral replication was monitored by determination of the amount of p24 Gag produced by MT-4 cells. The culture supernatants were harvested on day 7 and used to infect fresh MT-4 cells for the next round of culture in the presence of increasing concentrations of each drug. […] Proviral DNA samples obtained from the lysates of infected cells were subjected to nucleotide sequencing. This drug selection procedure was carried out until the drug concentration reached 1 or 5 μM.
# HIV-1ATV1μM = assay: microbe, parasite or virus in culture; assay type: cell-based; settings: for IC50: Human immunodeficiency virus 1, MT4, read-out: IC50 against HIV-1ATV1μM; for fold change of IC50, HIV-1ATV1μM: compared to wild-type HIV-1NL4-3
# Procedure: as §1, §2
# HIV-1IDV5μM = assay: microbe, parasite or virus in culture; assay type: cell-based; settings: for IC50: Human immunodeficiency virus 1, MT4, read-out: IC50 against HIV-1IDV5μM; for fold change of IC50, HIV-1IDV5μM: compared to wild-type HIV-1NL4-3
# Procedure: as §1, §2
# HIV-1LPV1μM = assay: microbe, parasite or virus in culture; assay type: cell-based; settings: for IC50: Human immunodeficiency virus 1, MT4, read-out: IC50 against HIV-1LPV1μM; for fold change of IC50, HIV-1LPV1μM: compared to wild-type HIV-1NL4-3
# Procedure: as §1, §2
# HIV-1NFV5μM = assay: microbe, parasite or virus in culture; assay type: cell-based; settings: for IC50: Human immunodeficiency virus 1, MT4, read-out: IC50 against HIV-1NFV5μM; for fold change of IC50, HIV-1NFV5μM: compared to wild-type HIV-1NL4-3
# Procedure: as §1, §2
# HIV-1RTV5μM = assay: microbe, parasite or virus in culture; assay type: cell-based; settings: for IC50: Human immunodeficiency virus 1, MT4, read-out: IC50 against HIV-1RTV5μM; for fold change of IC50, HIV-1RTV5μM: compared to wild-type HIV-1NL4-3
# Procedure: as §1, §2
# HIV-1SQV5μM = assay: microbe, parasite or virus in culture; assay type: cell-based; settings: for IC50: Human immunodeficiency virus 1, MT4, read-out: IC50 against HIV-1SQV5μM; for fold change of IC50, HIV-1SQV5μM: compared to wild-type HIV-1NL4-3
# Procedure: as §1, §2
# [1] = test system: HIV-1ERS104pre (wild-type: X4); assay: p24 Gag production inhibition, PHA-PBMs, wild-type clinical isolate; assay type: cell-based
# Procedure: as §1
# (§3) The amino acid substitutions identified in the protease-encoding region of HIV-1ERS104pre, HIV-1TM, HIV-1MM, HIV-1JSL, HIV-1B, HIV-1C, HIV-1G compared to the consensus type B sequence cited from the Los Alamos database include L63P; L10I, K14R, R41K, M46L, I54V, L63P, A71V, V82A, L90M; I93L; L10I, K43T, M46L, I54V, L63P, A71V, V82A, L90M, Q92K; L10I, L24I, I33F, E35D, M36I, N37S, M46L, I54V, R57K, I62V, L63P, A71V, G73S, V82A; L10I, K14R, L33I, M36I, M46I, F53I, K55R, I62V, L63P, A71V, G73S, V82A, L90M, I93L; L10I, I15V, K20R, L24I, M36I, M46L, I54V, I62V, L63P, K70Q, V82A, L89M; and L10I, V11I, T12E, I15V, L19I, R41K, M46L, L63P, A71T, V82A, L90M, respectively. HIV-1ERS104pre served as a source of wild-type HIV-1. The IC50 values were determined by using PHA-PBMs as target cells and the inhibition of p24 Gag protein production by each drug was used as an endpoint. The numbers in parentheses represent the fold changes of IC50 values for each isolate compared to the IC50 values for wild-type HIV-1ERS104pre. All assays were conducted in duplicate or triplicate, and the data shown represent mean values (±1 standard deviations) derived from the results of three independent experiments.
# 92UG029 (A-X4) = assay: p24 Gag production inhibition, PHA-PBMs, subtype A isolate 92UG029; assay type: cell-based, HIV-1
# Procedure: as §1
# (§4) The IC50 values were determined by using PHA-PBMs as target cells and the inhibition of p24 Gag protein production by each drug was used as an endpoint. All assays were conducted in duplicate, and the data shown represent mean values (±1 standard deviations) derived from the results of two or three independent experiments.
# 92TH019 (E-R5) = assay: p24 Gag production inhibition, PHA-PBMs, subtype E isolate 92TH019; assay type: cell-based, HIV-1; settings: Human immunodeficiency virus 1, read-out: IC50 against 92TH019 (E-R5)
# Procedure: as §1, §4
# [2] = test system: multi-drug-resistant clinical HIV-1 variants; assay: p24 assay, PHA-PBMs, panel of multi-drug-resistant clinical HIV-1 isolates; assay type: cell-based; settings: Human immunodeficiency virus 1, read-out: IC50 against multi-drug-resistant clinical HIV-1 strains, PHA-PBMs, p24 production
# Procedure: as §1, §3
# [3] = Human immunodeficiency virus 1, read-out: IC50 against HIV-1ERS104pre (wild-type: X4)
# [4] = Human immunodeficiency virus 1, PHA-PBMs, p24 Gag production, read-out: IC50 against 92UG029 (A-X4)
# [5] = Human immunodeficiency virus 1, PHA-PBMs, p24 Gag production, read-out: IC50 against HIV-1ERS104pre (wild-type: X4)
SMILES,IC50 (HIV-1APV5μM) [nM],"fold change of IC50, HIV-1APV5μM (HIV-1APV5μM)",IC50 (HIV-1ATV1μM) [nM],"fold change of IC50, HIV-1ATV1μM (HIV-1ATV1μM)",IC50 (HIV-1IDV5μM) [nM],"fold change of IC50, HIV-1IDV5μM (HIV-1IDV5μM)",IC50 (HIV-1LPV1μM) [nM],"fold change of IC50, HIV-1LPV1μM (HIV-1LPV1μM)",IC50 (HIV-1NFV5μM) [nM],"fold change of IC50, HIV-1NFV5μM (HIV-1NFV5μM)",IC50 (HIV-1RTV5μM) [nM],"fold change of IC50, HIV-1RTV5μM (HIV-1RTV5μM)",IC50 (HIV-1SQV5μM) [nM],"fold change of IC50, HIV-1SQV5μM (HIV-1SQV5μM)","IC50 [1, 3] [nM]",IC50 (92UG029 (A-X4); [4]) [nM],IC50 (92TH019 (E-R5)) [nM],"IC50 (92UG029 (A-X4); Human immunodeficiency virus 1, read-out: IC50 against 92UG029 (A-X4)) [nM]",IC50 [2] [nM],"IC50 [1, 5] [nM]"
"COC(=O)N[C@H](C(=O)N[C@@H](Cc1ccccc1)[C@@H](O)CN(Cc1ccc(-c2ccccn2)cc1)NC(=O)[C@@H](NC(=O)OC)C(C)(C)C)C(C)(C)C [ATV, Atazanavir]",3 ± 1,1,330,79,60 ± 20,14,40 ± 2,10,21 ± 6,5,18 ± 8,4,326 ± 1,78,3.8 ± 0.4,6 ± 2,2.7 ± 0.1,–,–,–
"CC(C)(C)NC(=O)[C@@H]1C[C@@H]2CCCC[C@@H]2CN1C[C@@H](O)[C@H](Cc1ccccc1)NC(=O)[C@H](CC(N)=O)NC(=O)c1ccc2ccccc2n1 [SQV, Saquinavir]",31 ± 4,4,37 ± 4,5,59 ± 4,8,32 ± 2,5,24 ± 8,3,10 ± 8,1,> 1000,> 143,8 ± 3,–,3 ± 0.1,4.8 ± 0.5,140 to 290,–
"CC(C)CN(C[C@@H](O)[C@H](Cc1ccccc1)NC(=O)O[C@H]1CCOC1)S(=O)(=O)c1ccc(N)cc1 [APV, Amprenavir]",> 1000,–,200 ± 70,–,170 ± 10,–,310 ± 20,–,60 ± 4,–,280 ± 20,–,330 ± 30,–,–,46 ± 6,21 ± 6,–,–,29 ± 5
CC(C)CN(CC(O)C(Cc1ccccc1)NC(=O)OC1COC2OCCC12)S(=O)(=O)c1ccc2c(c1)OCO2 (stereo not shown) [GRL-98065],32,107,1.5 ± 0.9,5,3.7 ± 0.7,12,7.5 ± 0.3,25,2.4 ± 0.8,8,2.5 ± 0.3,8,6 ± 3,20,–,0.5 ± 0.2,0.3 ± 0.1,–,≤ 6,–
"CC(C)(C)NC(=O)[C@@H]1CN(Cc2cccnc2)CCN1C[C@@H](O)C[C@@H](Cc1ccccc1)C(=O)N[C@H]1c2ccccc2C[C@H]1O [IDV, indinavir]",200 ± 7,–,388 ± 1,–,> 1000,–,> 1000,–,270 ± 50,–,250 ± 10,–,> 1000,–,–,44 ± 9,21 ± 1,–,> 1000,24 ± 8
"CC(C)c1nc(CN(C)C(=O)N[C@H](C(=O)N[C@@H](Cc2ccccc2)C[C@H](O)[C@H](Cc2ccccc2)NC(=O)OCc2cncs2)C(C)C)cs1 [RTV, ritonavir]",–,–,–,–,–,–,–,–,–,–,–,–,–,–,–,71 ± 11,30 ± 9,–,> 1000,–
"Cc1c(O)cccc1C(=O)N[C@@H](CSc1ccccc1)[C@H](O)CN1C[C@H]2CCCC[C@H]2C[C@H]1C(=O)NC(C)(C)C [NFV, Nelfinavir]",–,–,–,–,–,–,–,–,–,–,–,–,–,–,–,43 ± 6,29 ± 4,–,> 1000,–
"Cc1cccc(C)c1OCC(=O)N[C@@H](Cc1ccccc1)[C@@H](O)C[C@H](Cc1ccccc1)NC(=O)[C@H](C(C)C)N1CCCNC1=O [LPV, lopinavir]",–,–,–,–,–,–,–,–,–,–,–,–,–,–,–,7 ± 1,3.3 ± 0.5,–,–,7 ± 1
